Test results as given in ChEMBL document CHEMBL3774349, “Thiazolo[4,5-d]pyrimidines as a privileged scaffold in drug discovery” (Eur J Med Chem, 2016).

Legend:
[1] = target: T1, Corticotropin-releasing factor receptor 1 (Homo sapiens) (UniProt P34998); assay: Displacement of [125I]-Tyr0 sauvagine from human CRF1 receptor expressed in HEK293 cells membrane homogenates at 1000 nM for 120 mins by scintillation counting in the presence of antalarmin; type: cell membranes
T1 sequence (whole entry): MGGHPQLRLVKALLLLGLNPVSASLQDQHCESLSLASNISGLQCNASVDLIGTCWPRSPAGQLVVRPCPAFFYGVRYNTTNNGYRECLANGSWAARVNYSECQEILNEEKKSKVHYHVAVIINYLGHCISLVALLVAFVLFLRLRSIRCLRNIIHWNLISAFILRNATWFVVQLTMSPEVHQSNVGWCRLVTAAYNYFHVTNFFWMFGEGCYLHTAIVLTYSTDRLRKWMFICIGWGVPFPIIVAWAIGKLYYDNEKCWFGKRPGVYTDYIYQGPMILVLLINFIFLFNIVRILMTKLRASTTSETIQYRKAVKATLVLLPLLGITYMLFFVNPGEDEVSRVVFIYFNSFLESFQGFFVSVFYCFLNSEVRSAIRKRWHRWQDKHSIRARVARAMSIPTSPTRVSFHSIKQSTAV

[2] = Cytotoxicity against human KB cells assessed as cell growth inhibition by crystal violet staining based spectrophotometry; conditions: read-out: TC50 (the source's name)
Human betaherpesvirus 5 = assay: Antiviral activity against Human cytomegalovirus Towne infected in HFF cells after 2 hrs by plaque reduction assay; type: functional, cell-based; conditions: Human betaherpesvirus 5, Towne
[3] = Cytotoxicity against human MRC5 cells assessed as cell growth inhibition by aqueous non-Radioactivity Cell proliferation Assay; type: cell-based; conditions: read-out: TC50 (the source's name)
[4] = Cytotoxicity against monkey Vero cells assessed as cell growth inhibition by aqueous non-Radioactivity Cell proliferation Assay; type: cell-based; conditions: chlorocebus sabaeus, read-out: TC50 (the source's name)
Semliki Forest virus = assay: Antiviral activity against Semliki forest virus infected in mouse; type: functional

| inhibition [1] | IC50 (Human betaherpesvirus 5) | SMILES | CC50 [2] | CC50 [3] | CC50 [4] | Activity (Semliki Forest virus) |
| --- | --- | --- | --- | --- | --- | --- |
|  | 6.8 µM | CC(C)=CCn1c(=O)sc2c(=O)[nH]c(N)nc21 | 75 µM | 75 µM | 75 µM |  |
|  | 0.5 µM | CC/C=C/Cn1c(=O)sc2c(=O)[nH]c(N)nc21 | 75 µM | 75 µM | 75 µM |  |

The next lines start with the compound.

| SMILES | inhibition [1] | IC50 (Human betaherpesvirus 5) | CC50 [2] | CC50 [3] | CC50 [4] | Activity (Semliki Forest virus) |
| --- | --- | --- | --- | --- | --- | --- |
| CCCN(CC1CC1)c1nc(C)nc2c1SC(=C(C#N)C#N)N2c1ccc(C(C)C)cc1Br | 25% |  |  |  |  |  |
| CCOC(=O)/C(C#N)=C1/Sc2c(N(CCOC)CCOC)nc(C)nc2N1c1ccc(C(C)C)cc1Br | 25% |  |  |  |  |  |
| Nc1nc(=O)c2sc(=O)n([C@@H]3O[C@H](CO)[C@@H](O)[C@H]3O)c2[nH]1 [ISATORIBINE] |  |  |  |  |  | 92% |
